In patent publication US10570184B2, “GLP-1/glucagon receptor co-agonists for medical use” (Novo Nordisk A/S, priority 2014, dated 2020):
Starred links: 1 amine or outer side, 2 acyl side, 3 side chain; linkers in the order of their positions; H or OH if unused. Non-standard residues stand in square brackets, D forms with d. Residues, ends and D or L forms follow the SMILES beside them. Groups on a side chain read outwards from the residue. *: point of attachment. C18 diacid = O=C(O)CCCCCCCCCCCCCCCCC(=O)*; γGlu = O=C(O)[C@H](CCC(=O)[*:2])N[*:1]; AEEA = NCCOCCOCC(=O)O; Aib = CC(C)(N)C(=O)O

Columns and labels:
human GLP-1 receptor [1] = target: T1, human GLP-1 receptor (Homo sapiens, UniProt P43220); assay: Assay (II)(a) GLP-1 receptor binding, 125I-GLP-1 displacement SPA on BHK membranes; conditions: without presence of serum albumin; read-out: GLP-1R IC50 (nM) [Assay (II)(a)]
T1 construct: expressed in transfected cells; host or cells: membranes of BHK cells (parent BHKTS13), clone FCW467-12A
T1 sequence (P43220 24-463): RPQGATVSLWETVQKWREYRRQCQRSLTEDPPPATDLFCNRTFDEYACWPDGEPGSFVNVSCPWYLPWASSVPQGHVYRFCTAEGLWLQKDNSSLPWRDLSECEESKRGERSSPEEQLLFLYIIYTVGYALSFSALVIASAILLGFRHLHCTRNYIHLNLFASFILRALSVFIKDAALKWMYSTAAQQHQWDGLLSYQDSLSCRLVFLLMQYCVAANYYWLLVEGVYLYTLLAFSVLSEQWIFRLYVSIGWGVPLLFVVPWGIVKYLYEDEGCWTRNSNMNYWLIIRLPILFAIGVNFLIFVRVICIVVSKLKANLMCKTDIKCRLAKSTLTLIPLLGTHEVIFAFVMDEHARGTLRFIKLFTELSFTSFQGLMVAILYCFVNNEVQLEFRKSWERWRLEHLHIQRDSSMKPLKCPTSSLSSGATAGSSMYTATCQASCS
Procedure: The GLP-1 receptor (GLP-1R) binding is a measure of affinity of a compound for the human GLP-1 receptor. The receptor binding of each compound to the human GLP-1 receptor was measured in a displacement binding assay. In this type of assay a labelled ligand (in this case 125I-GLP-1) is bound to the receptor. Each derivative was added in a series of concentrations to isolated membranes containing the human GLP-1 receptor and displacement of the labelled ligand was monitored. The receptor binding was reported as the concentration at which half of the labelled ligand was displaced from the receptor, the IC50 value. In order to test the binding of the derivatives to albumin, the assay may be performed in a very low concentration of serum albumin (max. 0.001% final assay concentration) as well as in the presence of a (considerably) higher concentration of serum albumin (2.0% final assay concentration). An increase of the IC50 value, in the presence of serum albumin indicates an affinity to serum albumin and represents a method to predict a protracted pharmacokinetic profile of the test substance in animal models. The following chemicals were used in the assay: DMEM w/o phenol red (Gibco 11880-028), Pen/strep (Invitrogen 15140-122), G418 (Invitrogen 10131-027), 1 M Hepes (Gibco 15630), EDTA (Invitrogen 15575-038), PBS (Invitrogen 14190-094), fetal calf serum (Invitrogen 16140-071), EGTA, MgCl2 (Merck 1.05832.1000), Tween 20 (Amresco 0850C335), SPA particles (wheat germ agglutinin (WGA) SPA beads, Perkin Elmer RPNQ0001), [125I]-GLP-1]-(7-36)NH2 (produced in-house), OptiPlate™-96 (Perkin Elmer). Buffer 1 consisted of 20 mM Na-HEPES plus 10 mM EDTA and pH was adjusted to 7.4. Buffer 2 consisted of 20 mM Na-HEPES plus 0.1 mM EDTA and pH was adjusted to 7.4. Assay buffer consisted of 50 mM HEPES supplemented with 5 mM EGTA, 5 mM MgCl2, 0.005% Tween 20 and pH was adjusted to 7.4. The cells used in this assay (clone FCW467-12A) were BHK cells with BHKTS13 as a parent cell line. The cells express the human GLP-1 receptor. The cells were grown at 5% CO2 in DMEM, 10% fetal calf serum, 1% Pen/Strep (Penicillin/Streptomycin) and 1.0 mg/ml of the selection marker G418. To make a membrane preparation the cells were grown to approximately 80% confluence. The cells were washed twice in phosphate-buffered saline and harvested. The cells were pelleted using a brief centrifugation and the cell pellet was kept on ice. The cell pellet was homogenised with ULTRA-THURRAX dispersing instrument for 20-30 seconds in a suitable amount of buffer 1 (e.g., 10 ml). The homogenate was centrifuged for 15 minutes. The pellet was re-suspended (homogenised) in 10 ml buffer 2 and centrifuged. This step was repeated once more. The resulting pellet was re-suspended in buffer 2 and the protein concentration was determined. The membranes were aliquoted and stored at minus 80° C. • 1. For the receptor binding assay, 50 μl of the assay buffer was added to each well of an assay plate. • 2. Test compounds were serially diluted to give the following concentrations: 8×10EE-7 M, 8×10EE-8 M, 8×10EE-9 M, 8×10EE-10 M, 8×10EE-11 M, 8×10EE-12 M and 8×10EE-13 M. Twenty-five μl were added to appropriate wells in the assay plate. • 3. Cell membrane aliquots were thawed and diluted to their working concentration. Fifty μl were added to each well in the assay plate. • 4. WGA SPA beads were suspended in assay buffer at 20 mg/ml. The suspension was diluted to 10 mg/ml in assay buffer just prior to addition to the assay plate. Fifty μl were added to each well in the assay plate. • 5. The incubation was started by adding 25 μl of […] solution of [125I]-GLP-1]-(7-36)NH2 to each well of the assay plate. A 25 μl aliquot was reserved for measuring total counts/well. • 6. The assay plate was incubated for 2 h at 30° C. • 7. The assay plate was centrifuged for 10 min. • 8. The assay plate was read in a Perkin Elmer TopCount NXT instrument. […]

human GLP-1 receptor [2] = target: T1, human GLP-1 receptor; assay: Assay (I)(a) GLP-1 receptor activation, CRE luciferase reporter gene assay in BHK cells; format: cell-based; conditions: without presence of serum albumin; read-out: GLP-1R EC50 (pM) [Assay (I)(a)]
Procedure: The purpose of this example was to test the activity or potency, of the glucagon derivatives of the invention, in vitro. The in vitro potency is the measure of human GLP-1 receptor (GLP-1R) or glucagon receptor (glucagonR) activation, respectively, in a whole cell assay. In vitro potency was determined by measuring the response of human GLP-1 or glucagon receptor, respectively, in a reporter gene assay. The assay was performed in a stably transfected BHK cell line that expresses either the human GLP-1 receptor or the human glucagon receptor and contains the DNA for the cAMP response element (CRE) coupled to a promoter and the gene for firefly luciferase (CRE luciferase). […] When assay incubation was completed, the luciferase substrate (luciferin) was added and the enzyme converted luciferin to oxyluciferin and produces bioluminescence. The luminescence was measured as the readout for the assay. The cells used in this assay (clone FCW467-12A/KZ10-1) were BHK cells with BHKTS13 as a parent cell line. The cells were derived from a clone (FCW467-12A) that expresses the human GLP-1 receptor and were established by further transfection with CRE luciferase to obtain the current clone. The cells were cultured at 5% CO2 in DMEM medium with 10% FBS, 1×GlutaMAX, 1 mg/ml G418, 240 nM MTX (methotrexate) and 1% pen/strep (penicillin/streptomycin). They were aliquoted and stored in liquid nitrogen. Before each assay, an aliquot was taken up and washed three times in PBS before being suspended at the desired concentration in assay medium. For 96-well plates the suspension was made to give a final concentration of 5×10EE3 cells/well. The following chemicals were used in the assay: Pluronic F-68 (10%) (Gibco 2404), ovalbumin (Sigma A5503), DMEM w/o phenol red (Gibco 11880-028), 1 M Hepes (Gibco 15630), Glutamax 100× (Gibco 35050) and steadylite plus (PerkinElmer 6016757). Assay Medium consisted of DMEM w/o phenol red, 10 mM Hepes, 1× GlutaMAX, 2% Ovalbumin and 0.2% Pluronic F-68. Cell stocks were thawed in a 37° C. water bath. Cells were washed three times in PBS. The cells were counted and adjusted to 5×10EE3 cells/50 μl (1×10EE5 cells/ml) in Assay Medium. A 50 μl aliquot of cells was transferred to each well in the assay plate. Stocks of the test compounds and reference compounds were diluted to a concentration of […] in Assay Medium. Compounds were diluted 10-fold to give the following concentrations: 2×10EE-6 M, 2×10EE-7 M, 2×10EE-8 M; 2×10EE-9 M, 2×10EE-10 M, 2×10EE-11 M, 2×10EE-12 M and 2×10EE-13 M. For each compound a blank assay medium control was also included. A 50 μl aliquot of compound or blank was transferred from the dilution plate to the assay plate. Compounds were tested at the following final concentrations: 1×10EE-6 M, 1×10EE-7 M, 1×10EE-8 M; 1×10EE-9 M, 1×10EE-10 M, 1×10EE-11 M and 1×10EE-12 M and 1×10EE-13 M. The assay plate was incubated for 3 h in a 5% CO2 incubator at 37° C. The assay plate was removed from the incubator and allowed to stand at room temperature for 15 min. A 100 μl aliquot of steadylite plus reagent was added to each well of the assay plate (reagent is light sensitive). Each assay plate was covered with aluminum foil to protect it from light and shaken for 30 min at room temperature. Each assay plate was read in a Perkin Elmer TopCount NXT instrument. The data from the TopCount instrument was transferred to GraphPad Prism software. The software performed a non-linear regression (log(agonist) vs response-Variable slope (four parameter)). EC50 values were calculated by the software and reported in pM.

## CC[C@H](C)[C@H](NC(=O)[C@H](CC(C)C)NC(=O)[C@H](Cc1c[nH]c2ccccc12)NC(=O)[C@H](CCC(N)=O)NC(=O)[C@@H](NC(=O)[C@H](Cc1ccccc1)NC(=O)[C@H](CC(=O)O)NC(=O)[C@H](CCC(N)=O)NC(=O)[C@H](C)NC(=O)[C@H](CCCNC(=N)N)NC(=O)[C@H](CCCNC(=N)N)NC(=O)[C@H](C)NC(=O)[C@H](CC(=O)O)NC(=O)[C@H](CC(C)C)NC(=O)[C@H](Cc1ccc(O)cc1)NC(=O)[C@H](CCCCN)NC(=O)[C@H](CO)NC(=O)[C@@H](NC(=O)[C@H](CC(=O)O)NC(=O)[C@H](CO)NC(=O)[C@@H](NC(=O)[C@H](Cc1ccccc1)NC(=O)[C@@H](NC(=O)CNC(=O)[C@H](CCC(N)=O)NC(=O)C(C)(C)NC(=O)[C@@H](N)Cc1c[nH]cn1)[C@@H](C)O)[C@@H](C)O)C(C)C)C(C)C)C(=O)N[C@@H](CCCCNC(=O)CC[C@H](NC(=O)COCCOCCNC(=O)COCCOCCNC(=O)CC[C@H](NC(=O)CC[C@H](NC(=O)CCCCCCCCCCCCCCCCC(=O)O)C(=O)O)C(=O)O)C(=O)O)C(=O)N[C@H](C(N)=O)[C@@H](C)O [Chem. 39, N^ε28-[(4S)-4-carboxy-4-[[2-[2-[2-[[2-[2-[2-[[(4S)-4-carboxy-4-[[(4S)-4-carboxy-4-(17-carboxyheptadecanoylamino)butanoyl]amino]butanoyl]amino]ethoxy]ethoxy]acetyl]amino]ethoxy]ethoxy]acetyl]amino]butanoyl]-[Aib2,Val10,Ala16,Ile27,Lys28]-Glucagon amide] (H-H[Aib]QGTFTSDVSKYLDARRAQDFVQWLIK([γGlu-AEEA-AEEA-γGlu-γGlu-C18 diacid])T-NH2; N-terminus assumed)
Human GLP-1 receptor [1]
  IC50: 0.1 nM

## CC[C@H](C)[C@H](NC(=O)[C@H](CC(C)C)NC(=O)[C@H](Cc1c[nH]c2ccccc12)NC(=O)[C@H](CCC(N)=O)NC(=O)[C@@H](NC(=O)[C@H](Cc1ccccc1)NC(=O)[C@H](CC(=O)O)NC(=O)[C@H](CCC(N)=O)NC(=O)[C@H](C)NC(=O)[C@H](CCCNC(=N)N)NC(=O)[C@H](CCCNC(=N)N)NC(=O)[C@@H](NC(=O)[C@H](CC(=O)O)NC(=O)[C@H](CC(C)C)NC(=O)[C@H](Cc1ccc(O)cc1)NC(=O)[C@H](CCCCN)NC(=O)[C@H](CO)NC(=O)[C@H](CC(C)C)NC(=O)[C@H](CC(=O)O)NC(=O)[C@H](CO)NC(=O)[C@@H](NC(=O)[C@H](Cc1ccccc1)NC(=O)[C@@H](NC(=O)CNC(=O)[C@H](CCC(N)=O)NC(=O)C(C)(C)NC(=O)[C@@H](N)Cc1c[nH]cn1)[C@@H](C)O)[C@@H](C)O)C(C)C)C(C)C)C(=O)N[C@@H](CCCCNC(=O)CC[C@H](NC(=O)COCCOCCNC(=O)COCCOCCNC(=O)CC[C@H](NC(=O)CC[C@H](NC(=O)CCCCCCCCCCCCCCCCC(=O)O)C(=O)O)C(=O)O)C(=O)O)C(=O)N[C@H](C(N)=O)[C@@H](C)O [Chem. 40, N^ε28-[(4S)-4-carboxy-4-[[2-[2-[2-[[2-[2-[2-[[(4S)-4-carboxy-4-[[(4S)-4-carboxy-4-(17-carboxyheptadecanoylamino)butanoyl]amino]butanoyl]amino]ethoxy]ethoxy]acetyl]amino]ethoxy]ethoxy]acetyl]amino]butanoyl]-[Aib2,Leu10,Val16,Ile27,Lys28]-Glucagon amide] (H-H[Aib]QGTFTSDLSKYLDVRRAQDFVQWLIK([γGlu-AEEA-AEEA-γGlu-γGlu-C18 diacid])T-NH2; N-terminus assumed)
Human GLP-1 receptor [2]
  EC50: 3 pM
